In US20180200331A1, “BST-2 AS A THERAPEUTIC TARGET AND DIAGNOSTIC MARKER FOR BREAST CANCER GROWTH AND METASTASIS” (University of Iowa Research Foundation, priority 2015, published 2018):

Tests used:
Assay type in all cases: cell-based, mouse
4T1 cells [1] = test: Anoikis assay (Poly-HEMA); conditions: 48 hours
Description: 96-well plates were coated with 50 ul of sterile 95% Ethanol or 50 ul of 12 mg/ml Poly-HEMA in 95% Ethanol (Sigma-Aldrich) and allowed to dry for 72 hours under the hood as previously described. (See Phung et al. (2011) Rapid generation of in vitro multicellular spheroids for the study of monoclonal antibody therapy. J Cancer 2: 507-514). Poly-HEMA prevents cells from attaching to the plastic. Following, 4T1 shControl, sh413, sh413 WT, or sh413 C3A cells were plated at 20,000 cells/well. Plates were centrifuged at 1,200 g for 10 minutes and then incubated at 37° C. for 48 hours. Cells were collected to test cell viability using trypan blue (Life technologies) and an MTT assay (Life technologies). The rest of the cells were pelleted and kept at −20° C. until used for RNA and protein isolation.

E0771 cells [2] = test: MEF adhesion assay; conditions: luciferase bioluminescence and PKH67Green
Description: Murine embryonic fibroblasts (MEFs) were grown to confluency in 6-well plates. Equivalent numbers (150,000) of cancer cells labeled with PKH67Green fluorescent cell linker, following the manufacturer's instructions (Sigma-Aldrich), were added to the MEF monolayer and allowed to incubate for 8 hours. Non-adhered cells were washed off and adhered cells imaged. Image J (NIH, Bethesda, Md., USA) was used to quantify the number of PKH67Greenpositive cells. In parallel, luciferase-expressing cancer cells were added to MEFs monolayers in 6-well plates for 8 hours. Non-adhered cells were washed off and adhered cells were treated with D-luciferin and imaged using IVIS. For luciferase assay, cancer cells plated in 96-well plate were used for quantitation of luciferase bioluminescence.

E0771 cells [3] = test: MTT assay, E0771
Description: (§1) A total of 5,000 cells stably expressing sh137, sh413, or shControl were plated in 96-well plates. Cells were then incubated with 5 mg/ml MTT reagent for 3.5 hours followed by addition of MTT solvent (0.1% NP-40 and 4 mM HCl in isopropanol) and rocking for 15 minutes. Absorbance at 590 nm was read using a Tecan Infinite M200 Pro plate reader.

E0771 cells [4] = test: Boyden chamber assay; conditions: 20 hours
Description: The apical chamber of 24-well cell culture inserts (Merck Millipore, Billerica, Mass., USA) were seeded with previously starved sh137, sh413 or shControl transduced E0771 cells (150,000) in serum-free medium. Culture medium containing 30% FBS was added to the basal chamber of the unit and cells were allowed to migrate through the membranous barrier for 20 hours at 37° C. Non-migrated cells were washed off, migrated cells were fixed with 4% PFA for 5 minutes, washed twice with 1×PBS, permeabilized with 100% methanol for 25 minutes, labeled with Giemsa stain (for 15 minutes at room temperature) and imaged using a Nikon Eclipse Ti microscope adjusted with an X-cite series 120 LED fluorescence microscope light source and a Nikon digital sight camera. Images were processed using Image J software. Cells from five different fields were counted and averaged.

BST-2 = test: shRNA knockdown of BST-2 in E0771 and 4T1 cells; conditions: E0771 and 4T1 cells stably transduced
Text: E0771 and 4T1 cells were stably transduced with a construct expressing LV-CMV-firefly luciferase or an empty vector construct using lipofectamine following the manufacturer's instructions (Life Technologies, Carlsbad, Calif., USA). Stable transfectants were then transduced with lentiviral particles carrying BST-2-targeting sh137: CCGGC […] (SEQ ID NO:3); sh413: […] TTCTCAAGCTTTTTG (SEQ ID NO:4); or a non-targeting shControl: […] (SEQ ID NO:5) using a previously described protocol. Stable cells were generated by selection with the appropriate drug. The short hairpin RNA (shRNA) constructs were purchased from Sigma-Aldrich (St Louis, Mo., USA) (SHCLND-NM_198095) and lentiviral particles were generated at the Gene Transfer Vector Core at the University of Iowa.
Cell monolayers were washed with PBS and treated with Versene (Life Technologies). […] Stained cells were quantified using a FACSCalibur flow cytometer (BD Biosciences, San Jose, Calif., USA). […] Fluorescence-activated cell sorting (FACS) data were analyzed by Flowjo software (TreeStar, Ashland, Oreg., USA). […]
Western blots were performed as previously described. […] Band detection and quantification were carried out with the Odyssey Infrared Imaging System (LI-COR Biosciences, Lincoln, Nebr., USA).

4T1 cells [5] = test: MTT assay, 4T1
Description: as §1

sh413: BST-2-targeting shRNA (SEQ ID NO:4), delivered by lentiviral particles (CCGGGCTTGAGAATGAAGTCACGAACTCGAGTTCGTGACTTCATTCTCAAGCTTTTTG)
susceptibility to anoikis (4T1 cells [1]): renders cells susceptible to anoikis
cancer cell adhesion to MEF (E0771 cells [2]): decreased the ability of cancer cells to adhere to supporting cells
cell viability (MTT) (E0771 cells [3]): equally viable
rate of cell migration (Boyden chamber) (E0771 cells [4]): significantly reduced rate of cell migration
BST-2 expression (BST-2): more efficiently suppressed BST-2
cell viability (MTT) (4T1 cells [5]): increased cell viability
